Laboratory results from PMC9612005 (Pharmaceutics, 2022).

Legend:
[1] = molecular target: T1, rod CNG channels (CNGA1:CNGB1a) (Bos taurus, UniProt Q00194+Q28181); assay: Patch-clamp on inside-out patches, heterotetrameric rod CNG channels expressed in Xenopus laevis oocytes; type: cell-based, bovine; conditions: for effect on cGMP-activated rod CNG-channel activity: analogue(s) co-applied with cGMP (50 µM; combination 50 µM inhibitor + activator); for efficacy in activating rod CNG channels compared to cGMP: related to maximal cGMP-induced current
T1 construct: expressed in transfected cells; host or cells: Xenopus laevis oocytes (cRNA injection, pGEMHE vector); inside-out patches
From the text: The patch pipettes were pulled from borosilicate glass tubing (outer diameter 2.0 mm, inner diameter 1.0 mm; Hilgenberg GmbH, Malsfeld, Germany). The initial resistance of the solution-filled pipettes was 0.6–1.4 MΩ. […] For studying the activation and deactivation kinetics of CNG channels, we performed fast jumps between different ligand concentrations by means of a double-barreled θ-glass pipette mounted on a piezo-driven device, which was controlled by the computer. For measuring the time courses, the recording rate was 20 kHz. […]

[2] = molecular target: T2, cone CNG channels (CNGA3:CNGB3) (Homo sapiens, UniProt Q16281+Q9NQW8); assay: Patch-clamp on inside-out patches, heterotetrameric cone CNG channels expressed in Xenopus laevis oocytes; type: cell-based; conditions: for effect on cGMP-activated cone CNG-channel activity: analogue(s) co-applied with cGMP (50 µM; combination 50 µM inhibitor + activator); for EC50: concentration-activation relationship, Hill fit, read-out: EC50, cone CNG channels; for efficacy in activating cone CNG channels compared to cGMP: related to maximal cGMP-induced current
T2 construct: expressed in transfected cells; host or cells: Xenopus laevis oocytes (cRNA injection, pGEMHE vector); inside-out patches
T2 sequence (Q16281 1-694): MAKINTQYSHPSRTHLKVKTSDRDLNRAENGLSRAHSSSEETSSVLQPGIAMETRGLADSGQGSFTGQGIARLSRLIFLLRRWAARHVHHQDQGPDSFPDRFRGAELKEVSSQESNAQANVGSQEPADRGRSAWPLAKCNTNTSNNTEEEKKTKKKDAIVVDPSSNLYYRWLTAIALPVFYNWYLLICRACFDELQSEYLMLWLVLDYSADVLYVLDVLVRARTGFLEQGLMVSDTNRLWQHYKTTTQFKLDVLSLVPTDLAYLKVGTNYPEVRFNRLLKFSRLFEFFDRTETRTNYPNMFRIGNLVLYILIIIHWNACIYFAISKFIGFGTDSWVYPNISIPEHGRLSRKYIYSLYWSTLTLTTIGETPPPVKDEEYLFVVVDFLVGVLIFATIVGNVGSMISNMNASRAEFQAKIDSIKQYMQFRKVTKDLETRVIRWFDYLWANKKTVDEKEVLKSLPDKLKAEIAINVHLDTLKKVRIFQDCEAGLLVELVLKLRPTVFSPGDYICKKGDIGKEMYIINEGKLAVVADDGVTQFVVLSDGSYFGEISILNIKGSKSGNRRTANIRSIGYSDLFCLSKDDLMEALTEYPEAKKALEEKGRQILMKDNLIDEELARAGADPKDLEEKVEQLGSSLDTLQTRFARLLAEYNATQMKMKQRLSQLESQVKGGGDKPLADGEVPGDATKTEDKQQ
T2 sequence (Q9NQW8 1-809): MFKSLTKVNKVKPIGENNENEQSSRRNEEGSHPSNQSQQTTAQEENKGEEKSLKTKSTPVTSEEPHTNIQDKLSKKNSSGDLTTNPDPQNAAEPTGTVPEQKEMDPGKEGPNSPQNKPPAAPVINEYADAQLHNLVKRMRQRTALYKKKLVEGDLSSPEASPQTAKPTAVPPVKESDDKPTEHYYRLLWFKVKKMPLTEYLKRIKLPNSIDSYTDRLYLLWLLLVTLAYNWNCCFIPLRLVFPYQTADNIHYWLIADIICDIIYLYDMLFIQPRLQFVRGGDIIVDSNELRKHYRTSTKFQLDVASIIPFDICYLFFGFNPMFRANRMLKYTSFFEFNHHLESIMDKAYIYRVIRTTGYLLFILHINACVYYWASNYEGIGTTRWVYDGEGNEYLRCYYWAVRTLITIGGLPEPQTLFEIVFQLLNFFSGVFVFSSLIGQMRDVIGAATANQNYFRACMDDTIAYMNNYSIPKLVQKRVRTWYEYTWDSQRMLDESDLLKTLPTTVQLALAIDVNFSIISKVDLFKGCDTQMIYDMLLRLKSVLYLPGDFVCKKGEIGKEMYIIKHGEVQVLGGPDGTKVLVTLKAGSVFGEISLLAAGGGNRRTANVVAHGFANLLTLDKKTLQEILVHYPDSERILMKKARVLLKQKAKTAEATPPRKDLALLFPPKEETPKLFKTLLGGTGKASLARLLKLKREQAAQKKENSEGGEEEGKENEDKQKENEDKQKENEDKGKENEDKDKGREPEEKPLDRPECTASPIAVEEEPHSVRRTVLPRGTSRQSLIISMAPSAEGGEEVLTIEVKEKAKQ
From the text: The patch pipettes were pulled from borosilicate glass tubing (outer diameter 2.0 mm, inner diameter 1.0 mm; Hilgenberg GmbH, Malsfeld, Germany). The initial resistance of the solution-filled pipettes was 0.6–1.4 MΩ. […] For studying the activation and deactivation kinetics of CNG channels, we performed fast jumps between different ligand concentrations by means of a double-barreled θ-glass pipette mounted on a piezo-driven device, which was controlled by the computer. For measuring the time courses, the recording rate was 20 kHz.
The activation and deactivation time courses were determined by fitting the respective current traces with single exponentials:(3) I(t)=A∗exp[−t/τ] where A is the amplitude, t the time, and τ the time constant for either activation or deactivation.

CNG-channel in rods = tested on: CNG-channel in rods; parameters: method as in PMID 8778280; conditions: previous study, ref [44]; cited from earlier work
[3] = 100 µM, +100 mV, activity triggered by 3 mM cGMP
[4] = cGMP + 50 µM of the cGMP analogue

T1 sequence (Q00194 whole entry): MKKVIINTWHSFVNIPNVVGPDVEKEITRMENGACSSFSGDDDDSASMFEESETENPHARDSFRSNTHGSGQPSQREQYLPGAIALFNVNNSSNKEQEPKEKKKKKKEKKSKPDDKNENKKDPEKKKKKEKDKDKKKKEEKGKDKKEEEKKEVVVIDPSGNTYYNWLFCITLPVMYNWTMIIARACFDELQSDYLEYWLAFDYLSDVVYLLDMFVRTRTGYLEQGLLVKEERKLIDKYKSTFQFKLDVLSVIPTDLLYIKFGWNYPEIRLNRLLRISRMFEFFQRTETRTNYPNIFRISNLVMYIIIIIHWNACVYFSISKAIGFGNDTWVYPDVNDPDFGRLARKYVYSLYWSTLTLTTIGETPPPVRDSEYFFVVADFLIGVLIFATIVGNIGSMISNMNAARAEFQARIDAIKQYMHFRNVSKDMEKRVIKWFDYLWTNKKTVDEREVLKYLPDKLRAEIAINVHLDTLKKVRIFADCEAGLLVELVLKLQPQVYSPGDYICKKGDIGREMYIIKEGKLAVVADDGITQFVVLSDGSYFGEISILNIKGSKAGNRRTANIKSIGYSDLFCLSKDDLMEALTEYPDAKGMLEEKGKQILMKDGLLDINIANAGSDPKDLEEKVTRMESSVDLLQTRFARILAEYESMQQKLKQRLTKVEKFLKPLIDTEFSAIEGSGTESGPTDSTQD
T1 sequence (Q28181 whole entry): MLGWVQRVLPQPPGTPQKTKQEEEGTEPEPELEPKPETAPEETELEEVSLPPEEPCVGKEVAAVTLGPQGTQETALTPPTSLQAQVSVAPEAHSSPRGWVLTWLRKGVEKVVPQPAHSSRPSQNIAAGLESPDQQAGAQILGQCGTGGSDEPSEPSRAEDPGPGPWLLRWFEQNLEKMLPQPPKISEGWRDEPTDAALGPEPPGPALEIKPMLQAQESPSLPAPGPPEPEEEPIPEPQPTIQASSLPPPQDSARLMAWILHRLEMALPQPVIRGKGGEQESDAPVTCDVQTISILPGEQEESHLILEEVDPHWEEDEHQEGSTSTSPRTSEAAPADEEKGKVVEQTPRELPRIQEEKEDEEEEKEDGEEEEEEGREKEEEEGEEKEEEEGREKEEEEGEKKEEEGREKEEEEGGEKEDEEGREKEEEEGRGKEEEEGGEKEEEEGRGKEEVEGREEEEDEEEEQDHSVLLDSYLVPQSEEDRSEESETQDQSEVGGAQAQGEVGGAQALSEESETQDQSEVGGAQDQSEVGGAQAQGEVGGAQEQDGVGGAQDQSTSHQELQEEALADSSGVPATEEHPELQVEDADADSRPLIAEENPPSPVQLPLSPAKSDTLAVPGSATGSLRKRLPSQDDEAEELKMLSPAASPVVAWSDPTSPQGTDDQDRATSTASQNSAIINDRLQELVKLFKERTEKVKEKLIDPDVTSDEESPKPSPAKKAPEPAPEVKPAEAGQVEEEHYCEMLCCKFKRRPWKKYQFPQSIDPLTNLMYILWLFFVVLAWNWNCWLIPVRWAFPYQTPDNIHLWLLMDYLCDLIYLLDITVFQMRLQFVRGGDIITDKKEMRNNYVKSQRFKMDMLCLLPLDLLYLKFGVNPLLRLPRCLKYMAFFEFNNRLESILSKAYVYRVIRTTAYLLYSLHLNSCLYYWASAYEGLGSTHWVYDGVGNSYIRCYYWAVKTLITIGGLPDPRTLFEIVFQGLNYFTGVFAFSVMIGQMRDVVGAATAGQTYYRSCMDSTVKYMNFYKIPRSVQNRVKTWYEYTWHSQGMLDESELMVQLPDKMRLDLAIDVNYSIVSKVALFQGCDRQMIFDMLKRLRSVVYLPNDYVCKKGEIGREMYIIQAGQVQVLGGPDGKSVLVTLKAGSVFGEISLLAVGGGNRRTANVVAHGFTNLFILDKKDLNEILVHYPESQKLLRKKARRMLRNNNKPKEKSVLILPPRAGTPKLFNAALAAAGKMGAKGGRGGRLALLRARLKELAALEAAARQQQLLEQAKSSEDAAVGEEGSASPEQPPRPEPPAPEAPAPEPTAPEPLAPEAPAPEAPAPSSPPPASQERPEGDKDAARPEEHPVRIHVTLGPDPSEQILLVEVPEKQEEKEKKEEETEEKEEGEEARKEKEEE

Structure (SMILES) | H (Hill coefficient), rod CNG channels [1, 4] | effect on cGMP-activated cone CNG-channel activity [2] | H (Hill coefficient), cone CNG channels [2, 4] | efficacy in activating rod CNG channels compared to cGMP ([1]; +100 mV) | efficacy in activating cone CNG channels compared to cGMP ([2]; +100 mV) | also measured
COc1ccc([C@H]2Sc3ccccc3N(CCN(C)C)C(=O)[C@H]2OC(C)=O)cc1 (relative stereo) [L-cis-diltiazem, reference compound] | – | – | – | – | – | block of rod CNG channel activity [1, 3]: ~ 90.5%; block of cone CNG channel activity [2, 3]: ~ 63.4%
O=c1c2nc(Br)n([C@@H]3O[C@@H]4COP(=O)(O)O[C@H]4[C@H]3O)c2nc2[nH]c(-c3ccccc3)cn12 [8-Br-PET-cGMP] | 1.05 | under physiological cGMP it produced a potentiation of retinal CNG-channel activity, whereas at higher cGMP it caused minor inhibition | 1.5 | – | – | effect on cGMP-activated rod CNG-channel activity [1]: under physiological cGMP it produced a potentiation of retinal CNG-channel activity, whereas at higher cGMP it caused minor inhibition; Emax ([1]; read-out: efficacy of activating rod channel, of maximal activation): < 1%
Nc1nc2c(nc(Br)n2[C@@H]2O[C@@H]3COP(=O)(O)O[C@H]3[C@H]2O)c(=O)[nH]1 [8-Br-cGMP] | – | – | – | – | – | H (Hill coefficient), rod CNG channels ([1]; ligand alone): 2.1; EC50 ([1]; ligand alone, concentration-activation relationship, Hill fit, read-out: EC50, rod CNG channels): 6.61 µM; H (Hill coefficient), cone CNG channels ([2]; ligand alone): 1.94; EC50 ([2]; ligand alone): 1.05 µM
O=c1c2ncn([C@@H]3O[C@@H]4COP(=O)(O)O[C@H]4[C@H]3O)c2nc2[nH]c(-c3ccccc3)cn12 [PET-cGMP] | – | – | – | partial agonist | partial agonist | –
O=c1c2nc(Br)n([C@@H]3O[C@@H]4CO[P@@](=O)(S)O[C@H]4[C@H]3O)c2nc2[nH]c(-c3ccc4ccccc4c3)cn12 [Rp-8-Br-(2-N)ET-cGMPS] | 1.66 | – | 1.53 | lower efficacy than cGMP | lower efficacy than cGMP | –
Nc1nc2c(nc(Sc3ccc(Cl)cc3)n2[C@@H]2O[C@@H]3CO[P@@](=O)(S)O[C@H]3[C@H]2O)c(=O)[nH]1 [Rp-8-pCPT-cGMPS] | 1.23 | their activity at physiological cGMP increased, and at higher cGMP levels decreased | 1.04 | drastically reduced the efficacy | drastically reduced the efficacy | effect on cGMP-activated rod CNG-channel activity [1]: their activity at physiological cGMP increased, and at higher cGMP levels decreased; maximal CNG-channel activation in rods (CNG-channel in rods): ~ 93%
O=c1c2ncn([C@@H]3O[C@@H]4CO[P@@](=O)(S)O[C@H]4[C@H]3O)c2nc2[nH]c(-c3ccc4ccccc4c3)cn12 [Rp-(2-N)ET-cGMPS] | 1.68 | – | 1.84 | lower efficacy than cGMP | lower efficacy than cGMP | –
Nc1nc2c(ncn2[C@@H]2O[C@@H]3CO[P@@](=O)(S)O[C@H]3[C@H]2O)c(=O)[nH]1 [Rp-cGMPS] | 1.52 | did not influence the activity of cone channels | 1.13 | lower efficacy than cGMP | lower efficacy than cGMP | –
O=C1Cn2c(nc3c(nc(Br)n3[C@@H]3O[C@@H]4CO[P@@](=O)(S)O[C@H]4[C@H]3O)c2=O)N1 [Rp-ß-1,N2-Ac-Br-cGMPS, Rp-ß-1,N^2-Ac-Br-cGMPS] | 2.06 | did not influence the activity of cone channels | 1.64 | lower efficacy than cGMP | lower efficacy than cGMP | –
Nc1nc2c(ncn2[C@@H]2O[C@@H]3COP(=O)(O)O[C@H]3[C@H]2O)c(=O)[nH]1 [cGMP, reference compound] | – | – | – | – | – | H (Hill coefficient), rod CNG channels ([1]; ligand alone): 2.1; deactivation time constant τdeact, cone CNG channels ([2]; 5 µM cGMP alone or 5 µM cGMP + 50 µM inhibitor + 0.1 µM activator, concentration jump): 80.6 ± 4.6 ms; H (Hill coefficient), cone CNG channels ([2]; ligand alone): 1.47; EC50 ([2]; ligand alone): 11.1 µM
